Results: US9115143B2, “Substituted indole derivatives as gamma secretase modulators” (Janssen Pharmaceuticals, Inc., priority 2011, dated 2015)

Assays:
[1] = tested on: Aβ40; assay: In vivo efficacy B-1b/B-2b: brain soluble Aβ40, MSD electrochemiluminescence multiplex; conditions: mouse brain soluble fraction, dose 30 mg/kg oral dosing, 4 h after dose; untreated control set at 100; read-out: Aβ40 (% vs Ctrl)_Mean
From the text: (§1) To determine whether acute administration of an Aβ42 lowering agent would reduce Aβ42 levels in vivo, non-transgenic rodents, e.g. mice or rats were used. Animals treated with the Aβ42 lowering agent were examined and compared to those untreated or treated with vehicle and brain levels of soluble Aβ42, Aβ40, Aβ38, and Aβ37 were quantitated by Meso Scale Discovery's (MSD) electrochemiluminescence detection technology. Treatment periods varied from hours (h) to days and were adjusted based on the results of the Aβ42 lowering once a time course of onset of effect could be established.
(§2) A typical protocol for measuring Aβ42 lowering in vivo is shown but it is only one of many variations that could be used to optimize the levels of detectable Aβ. For example, Aβ42 lowering compounds were formulated in 20% of Captisol® (a sulfobutyl ether of β-cyclodextrin) in water or 20% hydroxypropyl β cyclodextrin. The Aβ42 lowering agents were administered as a single oral dose or by any acceptable route of administration to overnight fasted animals. After 4 h, the animals were sacrificed and Aβ42 levels were analysed.
(§3) Blood was collected by decapitation and exsanguinations in EDTA-treated collection tubes. Blood was centrifuged at 1900 g for 10 minutes (min) at 4° C. and the plasma recovered and flash frozen for later analysis. The brain was removed from the cranium and hindbrain. The cerebellum was removed and the left and right hemisphere were separated. The left hemisphere was stored at −18° C. for quantitative analysis of test compound levels. The right hemisphere was rinsed with phosphate-buffered saline (PBS) buffer and immediately frozen on dry ice and stored at −80° C. until homogenization for biochemical assays.
(§4) Mouse brains from non-transgenic animals were resuspended in 8 volumes of 0.4% DEA (diethylamine)/50 mM NaCl containing protease inhibitors (Roche-11873580001 or 04693159001) per gram of tissue, e.g. for 0.158 g brain, add 1.264 ml of 0.4% DEA. All samples were homogenized in the FastPrep-24 system (MP Biomedicals) using lysing matrix D (MPBio #6913-100) at 6 m/s for 20 seconds. Homogenates were centrifuged at 20800×g for 5 min and supernatants collected. Supernatants were centrifuged at 221.300×g for 50 min. The resulting high speed supernatants were then transferred to fresh eppendorf tubes. Nine parts of supernatant were neutralized with 1 part 0.5 M Tris-HCl pH 6.8 and used to quantify Aβ.
(§5) To quantify the amount of Aβ42, Aβ40, Aβ38, and Aβ37 in the soluble fraction of the brain homogenates, simultaneous specific detection of Aβ42, Aβ40, Aβ38, and Aβ37 was performed using MSD's electro-chemiluminescence multiplex detection technology. In this assay purified monoclonal antibodies specific for Abeta37 (JRD/Aβ37/3), Abeta38 (J&JPRD/Aβ38/5), Abeta40 (JRF/cAβ40/28), and Abeta42 (JRF/cAβ42/26) were coated on MSD 4-plex plates. Briefly, the standards (a dilution of synthetic Aβ42, Aβ40, Aβ38, and Aβ37) were prepared in 1.5 ml Eppendorf tube in Ultraculture, with final concentrations ranging from 10000 to 0.3 pg/m. The samples and standards were co-incubated with Sulfo-tag labelled JRF/rAβ/2 antibody to the N-terminus of Aβ as detector antibody. 50 μl of conjugate/sample or conjugate/standards mixtures were then added to the antibody-coated plate. The plate was allowed to incubate overnight at 4° C. in order to allow formation of the antibody-amyloid complex. Following this incubation and subsequent wash steps the assay was finished by adding read buffer according to the manufacturer's instructions (Meso Scale Discovery, Gaitherburg, Md.).
(§6) The SULFO-TAG emits light upon electrochemical stimulation initiated at the electrode. MSD Sector instrument SI6000 was used for signal read-out.
The results are shown in Table 5 (dose 30 mg/kg oral dosing) (value for untreated animals as control (Ctrl) was set at 100): […]

[2] = tested on: Aβ38; assay: In vivo efficacy B-2b: brain soluble Aβ38, MSD electrochemiluminescence multiplex; conditions: mouse brain soluble fraction, dose 30 mg/kg oral dosing, 4 h after dose; untreated control set at 100; read-out: Aβ38 (% vs Ctrl)_Mean
From the text: as §1, with “Aβ38 increasing agents” for “Aβ42 lowering agent”, “increase Aβ38” for “reduce Aβ42”, “MSD” for “Meso Scale Discovery's (MSD)”, “Aβ38 increase” for “Aβ42 lowering”
as §2, with “measuring Aβ38 increase” for “measuring Aβ42 lowering”, “example, Aβ38 increasing agents” for “example, Aβ42 lowering compounds”, “The Aβ38 increasing” for “The Aβ42 lowering”, “and Aβ38” for “and Aβ42”
as §3, §4, §5, §6
In this model a Aβ38 increase compared to untreated animals would be advantageous, in particular a Aβ38 increase with at least 10%, more in particular a Aβ38 increase with at least 20%. […]

[3] = tested on: Aβ42; assay: In vivo efficacy B-1b: brain soluble Aβ42, MSD electrochemiluminescence multiplex; conditions: mouse brain soluble fraction, dose 30 mg/kg oral dosing, 4 h after dose; untreated control set at 100; read-out: Aβ42 (% vs Ctrl)_Mean
From the text: as §1, §2, §3, §4, §5, §6
In this model a Aβ42 lowering compared to untreated animals would be advantageous, in particular a Aβ42 lowering with at least 10%, more in particular a Aβ42 lowering with at least 20%. […]

SMILES	response vs control in vivo at 30 mg/kg [1]	response vs control in vivo at 30 mg/kg [2]	response vs control in vivo at 30 mg/kg [3]	melting point
Cc1cn(-c2ccc3[nH]c(-c4nc5n(n4)CCCC5c4ccc(F)cc4C)nc3c2)cn1 (stereo not drawn) [Compound 176, 8-(4-fluoro-2-methylphenyl)-5,6,7,8-tetrahydro-2-[5-(4-methyl-1H-imidazol-1-yl)-1H-benzimidazol-2-yl]-[1,2,4]triazolo[1,5-a]pyridine]	111%	126%	103%	–
COc1c(C#N)ccc2[nH]c(-c3nc4n(n3)CCOC4c3c(F)cccc3Cl)cc12 (single isomer, unassigned) [Compound 117, 2-[8-(2-chloro-6-fluorophenyl)-5,6-dihydro-8H-[1,2,4]triazolo[5,1-c][1,4]oxazin-2-yl]-4-methoxy-1H-indole-5-carbonitrile]	112%	147%	79%	–
N#Cc1ccc2[nH]c(-c3nc4n(n3)CCCC4c3cccc(OC(F)(F)F)c3)cc2c1 (stereo not drawn) [Compound 20, 2-[5,6,7,8-tetrahydro-8-[3-(trifluoromethoxy)phenyl][1,2,4]triazolo[1,5-a]pyridin-2-yl]-1H-indole-5-carbonitrile]	–	–	–	225.1 °C
Cc1cn(-c2ccc3[nH]c(-c4nc5n(n4)CCCC5c4ccccc4C)cc3n2)cn1.Cl (stereo not drawn) [Compound 5, 5,6,7,8-tetrahydro-2-[5-(4-methyl-1H-imidazol-1-yl)-1H-pyrrolo[3,2-b]pyridin-2-yl]-8-(2-methylphenyl)-[1,2,4]triazolo[1,5-a]pyridine]	–	–	–	189.4 °C
COc1c(C#N)ccc2[nH]c(-c3cn4c(n3)C(c3ccc(F)cc3C)OCC4)cc12 (stereo not drawn) [Compound 47, 2-[8-(4-fluoro-2-methylphenyl)-5,6-dihydro-8H-imidazo[2,1-c][1,4]oxazin-2-yl]-4-methoxy-1H-indole-5-carbonitrile]	56%	222%	55%	242.6 °C
N#Cc1ccc2[nH]c(-c3nc4n(n3)CCCC4c3ccccc3C(F)(F)F)cc2c1 (stereo not drawn) [Compound 18, 2-[5,6,7,8-tetrahydro-8-[2-(trifluoromethyl)phenyl][1,2,4]triazolo[1,5-a]pyridin-2-yl]-1H-indole-5-carbonitrile]	–	–	–	229 °C
Cc1ccccc1C1CCCn2nc(-c3cc4cc(C#N)ccc4[nH]3)nc21 (stereo not drawn) [Compound 12, 2-[5,6,7,8-tetrahydro-8-(2-methylphenyl)[1,2,4]triazolo[1,5-a]pyridin-2-yl]-1H-indole-5-carbonitrile]	–	–	–	142.1 °C
COc1c(C#N)ccc2[nH]c(-c3nc4n(n3)CCOC4c3ccccc3C(F)(F)F)cc12 (stereo not drawn) [Compound 55, 2-[5,6-dihydro-8-[2-(trifluoromethyl)phenyl]-8H-[1,2,4]triazolo[5,1-c][1,4]oxazin-2-yl]-4-methoxy-1H-indole-5-carbonitrile]	94%	148%	68%	–
COc1c(C#N)ccc2[nH]c(-c3nc4n(n3)CCOC4c3ccc(F)cc3C)cc12 (stereo not drawn) [Compound 114, 2-[8-(4-fluoro-2-methylphenyl)-5,6-dihydro-8H-[1,2,4]triazolo[5,1-c][1,4]oxazin-2-yl]-4-methoxy-1H-indole-5-carbonitrile]	–	–	–	257.5 °C
Cc1cc(-c2ccc3[nH]c(-c4nc5n(n4)CCCC5c4ccccc4C)cc3n2)ccn1 (stereo not drawn) [Compound 6, 5,6,7,8-tetrahydro-8-(2-methylphenyl)-2-[5-(2-methyl-4-pyridinyl)-1H-pyrrolo[3,2-b]pyridin-2-yl]-[1,2,4]triazolo[1,5-a]pyridine]	–	–	–	266.5 °C
Cc1cc(F)ccc1C1CCCn2nc(-c3cc4cc(C#N)ccc4[nH]3)nc21 (stereo not drawn) [Compound 9, 2-[8-(4-fluoro-2-methylphenyl)-5,6,7,8-tetrahydro[1,2,4]triazolo[1,5-a]pyridin-2-yl]-1H-indole-5-carbonitrile]	–	–	–	244.9 °C
COc1c(C#N)ccc2[nH]c(-c3cn4c(n3)C(c3ccc(F)cc3C)OCC4)cc12 (stereo not drawn) [Compound 46, 2-[8-(4-fluoro-2-methylphenyl)-5,6-dihydro-8H-imidazo[2,1-c][1,4]oxazin-2-yl]-4-methoxy-1H-indole-5-carbonitrile]	–	–	–	236.2 °C
